Laboratory results published in PubChem BioAssay (NCI).
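Interpolation was linear, between the two tested concentrations surrounding the appropriate level; five concentrations were tested over 48 hours in 96-well plates. Definition used: TGI = concentration required for complete inhibition of growth.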

Legend:
Experiment in all cases: NCI tumour cell line growth inhibition, 48 h
[1] = tested on: MOLT-4 leukemia
[2] = tested on: MCF7 breast
[3] = tested on: BT-549 breast
[4] = tested on: DU-145 prostate
[5] = tested on: SK-MEL-2 melanoma
[6] = tested on: SK-MEL-5 melanoma
[7] = tested on: OVCAR-4 ovarian
[8] = tested on: COLO 205 colon
[9] = tested on: SN12C renal
[10] = tested on: OVCAR-3 ovarian
[11] = tested on: CAKI-1 renal
[12] = tested on: OVCAR-8 ovarian
[13] = tested on: NCI-H23 lung
[14] = tested on: NCI/ADR-RES ovarian
[15] = tested on: TK-10 renal
[16] = tested on: NCI-H226 lung
[17] = tested on: M14 melanoma
[18] = tested on: K-562 leukemia
[19] = tested on: CCRF-CEM leukemia

COc1cc(N(Cc2ccc3nc(OC)c(OC)nc3c2)Cc2ccc3nc(OC)c(OC)nc3c2)cc(OC)c1OC gave a TGI [1] of over 50 µM, a TGI [2] of over 50 µM and a TGI [3] of over 50 µM. The TGI [4] was over 50 µM, the TGI [5] was over 50 µM and the TGI [6] was over 50 µM. For the same compound, the TGI [7] was over 50 µM, the TGI [8] was over 50 µM and the TGI [9] was over 50 µM. For the same compound, the TGI [10] was over 50 µM, the TGI [11] was over 50 µM and the TGI [12] was over 50 µM. For the same compound, the TGI [13] was over 50 µM, the TGI [14] was over 50 µM and the TGI [15] was over 50 µM. For the same compound, the TGI [16] was over 50 µM and the TGI [17] was over 50 µM.
NCCC(=O)N[C@@H](Cc1cc(O)c(O)c(SCC(NC(=O)CC[C@H](N)C(=O)O)C(=O)NCC(=O)O)c1)C(=O)O (stereo not given in full) showed a TGI [1] of over 50 µM, a TGI [2] of over 50 µM and a TGI [3] of over 50 µM. For the same compound, the TGI [4] was over 50 µM, the TGI [5] was over 50 µM and the TGI [7] was over 50 µM. The TGI [8] was over 50 µM, the TGI [18] was over 50 µM and the TGI [9] was over 50 µM. It also gave a TGI [10] of over 50 µM, a TGI [11] of over 50 µM and a TGI [13] of over 50 µM. It also gave a TGI [14] of over 50 µM, a TGI [15] of over 50 µM and a TGI [16] of over 50 µM. For the same compound, the TGI [17] was over 50 µM.
Work on O[C@@H]1C[C@H]2N3CC[C@@]2(c2cc4c(cc2C3)OCO4)[C@H]2O[C@@H]12 yielded a TGI [1] of over 100 µM, a TGI [19] of over 100 µM and a TGI [2] of over 100 µM. The TGI [3] was over 100 µM, the TGI [4] was over 100 µM and the TGI [5] was over 100 µM. For the same compound, the TGI [7] was over 100 µM, the TGI [8] was 0.0204 µM and the TGI [18] was over 100 µM. The TGI [9] was over 100 µM, the TGI [10] was over 100 µM and the TGI [11] was over 100 µM. For the same compound, the TGI [12] was over 100 µM, the TGI [13] was over 100 µM and the TGI [14] was over 100 µM. The TGI [15] was over 100 µM, the TGI [16] was 0.0792 µM and the TGI [17] was over 100 µM.
With COc1cccc(Cc2cc(=O)c3ccc(C)nc3[nH]2)c1 the TGI [1] was over 100 µM, the TGI [19] was over 100 µM and the TGI [2] was over 100 µM. The TGI [3] was over 100 µM, the TGI [4] was over 100 µM and the TGI [5] was over 100 µM. The TGI [6] was over 100 µM, the TGI [8] was over 100 µM and the TGI [18] was over 100 µM. For the same compound, the TGI [9] was over 100 µM, the TGI [10] was over 100 µM and the TGI [11] was over 100 µM. For the same compound, the TGI [12] was over 100 µM, the TGI [13] was over 100 µM and the TGI [14] was over 100 µM. It also gave a TGI [15] of over 100 µM, a TGI [16] of over 100 µM and a TGI [17] of over 100 µM.
In the case of O=C(O)[C@@H]1NC[C@H]2C(Br)=NO[C@H]21, the TGI [1] is reported as over 100 µM, the TGI [19] is reported as over 100 µM and the TGI [2] is reported as over 100 µM. It also gave a TGI [3] of over 100 µM, a TGI [4] of over 100 µM and a TGI [5] of over 100 µM. The TGI [6] was over 100 µM, the TGI [7] was over 100 µM and the TGI [8] was over 100 µM. It also gave a TGI [9] of over 100 µM, a TGI [10] of over 100 µM and a TGI [11] of over 100 µM. For the same compound, the TGI [12] was over 100 µM, the TGI [13] was over 100 µM and the TGI [14] was over 100 µM. For the same compound, the TGI [15] was over 100 µM, the TGI [16] was over 100 µM and the TGI [17] was over 100 µM.
Work on CC(=N\N=C\c1ccccn1)/C(C)=N/N=C(C)/C(C)=N/N=C/c1ccccn1 yielded a TGI [19] of over 100 µM, a TGI [2] of over 100 µM and a TGI [3] of over 100 µM. The TGI [4] was over 100 µM, the TGI [5] was over 100 µM and the TGI [6] was over 100 µM. The TGI [7] was over 100 µM, the TGI [8] was over 100 µM and the TGI [9] was over 100 µM. For the same compound, the TGI [10] was over 100 µM, the TGI [11] was over 100 µM and the TGI [12] was over 100 µM. The TGI [13] was over 100 µM, the TGI [14] was over 100 µM and the TGI [15] was over 100 µM. It also gave a TGI [16] of over 100 µM and a TGI [17] of over 100 µM.
COC(=O)/C=C(\S/C(=N\n1cc(C(=O)OC)c(C(=O)OC)c1-c1ccc(C)cc1)c1ccc(C)cc1)C(=O)OC gave a TGI [1] of over 100 µM, a TGI [2] of 23.7 µM and a TGI [3] of 21.3 µM. For the same compound, the TGI [4] was 31.4 µM, the TGI [5] was 15 µM and the TGI [6] was 27.1 µM. It also gave a TGI [7] of 3.37 µM, a TGI [8] of 6.61 µM and a TGI [9] of 11.8 µM. For the same compound, the TGI [10] was 12.4 µM, the TGI [12] was 34.9 µM and the TGI [13] was 11.5 µM. It also gave a TGI [14] of 17.2 µM, a TGI [15] of 8.42 µM and a TGI [16] of 3.5 µM. It also gave a TGI [17] of 11 µM.
